# Experimental data reported in patent US20030134859A1 (SANKYO COMPANY, LIMITED, priority 2000, published 2003).
# Assays:
# KK mice = assay: Plasma glucose lowering effects in hyperglycemic KK mice; format: in vivo, mouse; details: male KK mice, 0.3 weight % in food for 1 week
# Description: Unless otherwise described, mice were bred individually, and food and water were taken ad libitum in the following experiments. For this, F2 food powder (Funahashi Farm) was used. Plasma glucose level in the blood collected from the tail vein of a mouse with a heparin-coated glass tube was determined with the Glucoloader (A&T Corp.).
# Male KK mice (purchased from Clea Japan, Inc) were purchased at 6 weeks old and were bred until 19 weeks old through an acclimatisation period and test period. The plasma glucose level of each mouse was determined and the occurrence of hyperglycemia in the mice was confrrmed. The animals with a plasma glucose level of 350 mg/dl and higher were screened and the animals for use in the experiment were selected. The selected mice were divided into a control group and a test compound treated group (n=6/group) matched for body weights and plasma glucose levels.
# In the control group, conventional food powder was given-to each mouse, while in the test compound-treated group, the food comprising the food powder (F2) mixed with the test compound (final concentration: 0.3 weight %) was given to each mouse. The mice in both groups were bred for 1 week.
# One week after the treatment, the blood glucose level was determined.
# lenses = assay: Cataract assessment: opacity of cultured lenses exposed to hydrogen peroxide; parameters: species or system rat; details: 100 nM test compound with 5 mM hydrogen peroxide; 24 hr; clear: 0, slightly opaque: 1, moderately opaque: 2
# Description: The lenses were isolated from Sprague-Dawley rats (male, purchased from SLC Japan), and the lenses were pre-cultured in a medium (Medium-199: GIBCO BRL) for 3 hr and the lenses maintaining transparency were selected and used in the experiment. The crystalline lenses were cultured for 24 hr in the following 3 groups; 1) in Medium-199 (3 mL), 2) in Medium-199 (3 mL) containing hydrogen peroxide (final concentration: 5 mM) and 3) in Medium-199 (3 mL) containing the test compound (final concentration: 100 nM), DMSO (final concentration: 0.1% v/v) and hydrogen peroxide (final concentration: 5 mM). After finalising culturing, the opacity of the lens was scored based on the following criteria: clear: 0, slightly opaque: 1, moderately opaque: 2. Thus the improving effect of the test compound on cataracts was assessed.
# ABCA1 mRNA = assay: Quantitative analysis of ABCA1 mRNA (TaqMan PCR) in RAW264.7 cells; format: cell-based, mouse; details: 100 nM test compound, 24 hr, normalised to β-actin, DMSO = 100
# Description: The mouse monocyte/macrophage cell line, RAW264.7 (ATCC TIB71) was purchased from Dainippon Pharmaceutical Co., Ltd. As the medium, the Dulbecco's modified Eagle's medium (DMEM medium; GIBCO, Cat. No. 11995-040) containing bovine fetal serum (the final concentration: 10% (v/v), MOREGATE, lot No. 474030), penicillin G (the final concentration: 50 units/mL, GIBCO) and streptomycin (the final concentration: 20 μg/mL, GIBCO) was used.
# The culture of RAW264.7 cells was carried out in a CO2 incubator (37° C., 95% R.H., 5% of CO2).
# A 2 ml volume of RAW264.7 cells suspension (1×10^6 cells/mL) was plated in each well of a 6-well plate (2×10^6 cells/well) and the cells were incubated for 2 hr in a CO2 incubator. The test compounds dissolved in DMSO were diluted with DMEM medium by 20 times, and were added to the wells at a volume of 4 μL/well (final concentration of the test compound: 100 nM). As the control, the DMSO solution was diluted with the DMEM medium by 20 times, and was added to the wells at the volume of 4 μL/well. After the cells were cultured in a CO2 incubator for 24 hr, the medium was removed and the total RNA was purified by using an RNeasy Mini Kit (Qiagen), according to the protocol attached. The concentration of the RNA in the samples obtained was calculated from absorbance at 260 nm (A260=1=40 μg/ml). Six (6) μg of total RNA were diluted with RNAase-free water so as to be 22.6 μL, which was heated at 65° C. for 10 min, and then was cooled on ice. The RNA in the solution was used as the template, and the cDNA was synthesized by using a First-strand cDNA Synthesis Kit (Amersham Pharmacia Biotech). In this reaction, a solution was prepared having the following composition and was reacted at 37° C. for 1 hr.
# After the reaction, 3 μL of soution were collected from each of the reaction mixtures of the test compound-treated cell samples and that of the control cell samples. The mixed solution was used as the standard solution. The standard solution and each reaction solution were purified with a Chroma Spin-100+DEPC-H2O Column according to the protocol attached, and they were used as the template for TaqMan PCR (Template). In order to draw the calibration curve, the standard solution was diluted by every 5 times for 5 steps and each solution was used for TaqMan PCR. TaqMan PCR was carried out in ABCA1 and β-actin. As Primers for use in the TaqMan PCR, 4 oligonucleotides (abca1 forward (S3), abca1 reverse (AS3), β-actin forward (S4) and β-actin reverse (AS4)) were designed which are shown in sequences No. 5 to 8 in the sequence table described later. The synthesis and purification of these 4 oligomers was ordered from Amersham Pharmacia Biotech Co.
# As FAM-TAMRA labelled TaqMan Probe, 2 kinds of oligonucleotides (abca1 (p1) and β-actin (p2)) were designed and were ordered from Applied Biosystems Co. to synthesize and purify.
# The following reaction mixture of ABCA1 or β-actin was divided into 2 wells of a MicroAmp Optical 96-well Reaction Plate (Applied Biosystem Co.). TaqMan Universal PCR Master Mix was purchased from Applied Biosystem Co.
# The plate was covered with a MicroAmp Optical Cap (Applied Biosystems Co.), and TaqMan PCR was carried out by using an ABI PRISM 7,700 Sequence Detection System (Applied Biosystem Co.) under the following conditions:
# An analysis was made according to the procedures described in the manual of Sequence Detection Software (Applied Biosystem Co.) and the increased rate of ABCA1 mRNA due to the test compound was calculated based on the following equation.
# A: Amount of the ABCA1 mRNA in the presence of the test compound
# B: Amount of the β-actin mRNA in the presence of the test compound
# C: Amount of the ABCA1 mRNA in the presence of DMSO
# D: Amount of the β-actin mRNA in the presence of DMSO
# Increase Rate (%) of ABCA1 mRNA=(A/B)/(C/D)×100
smiles,measurement,setting,value
"O=C(Nc1ccc(OC(F)(F)F)cc1)c1cc([N+](=O)[O-])ccc1Cl [Example 18, N-(4-Trifluoromethyloxyphenyl)-(2-chloro-5-nitrophenyl)carboxamide]",plasma glucose on Day 7,KK mice; n=6/group,315 ± 14
same,% of inhibition (vs. control),KK mice; plasma glucose on Day 7,55%
"Cc1c(C)c2c(c(C)c1O)C(=O)CC(C)(COc1ccc(NC(=O)c3cc([N+](=O)[O-])ccc3Cl)cc1)O2 (centres unmarked) [Example 92, N-[4-(6-Hydroxy-2,5,7,8-tetramethyl-4-oxochroman-2-ylmethoxy)phenyl]-(2-chloro-5-nitrophenyl)carboxamide]",opacity of the lens (average score),lenses,1.0
"CCN(CC)c1ccc(-c2ccc(NC(=O)c3cc([N+](=O)[O-])ccc3Cl)cc2)cc1 [Example 217, N-[4-[4-(N,N-Diethylamino)phenyl]phenyl]-(2-chloro-5-nitrophenyl)carboxamide]",Rate of Increase (%) of ABCA1 mRNA,ABCA1 mRNA,187.0%
"CCN(C)c1ccc(-c2ccc(NC(=O)c3cc([N+](=O)[O-])ccc3Cl)cc2)cc1 [Example 218, N-[4-[4-(N-Ethyl-N-methylamino)phenyl]phenyl]-(2-chloro-5-nitrophenyl)carboxamide]",Rate of Increase (%) of ABCA1 mRNA,ABCA1 mRNA,190.0%
